From the kinase profiling compilation of Christmann-Franck et al. (2016)

How the values were obtained:
Experiment in all cases: KINOMEscan competition binding
Conditions in all cases: compound 10.0 µM
AKT2 (human) = AKT2 (human) (UniProt P31751)
ANKK1 (human) = ANKK1 (human) (UniProt Q8NFD2)
BRSK2 (human) = BRSK2 (human) (UniProt Q8IWQ3)
CAMK2G (human) = CAMK2G (human) (UniProt Q13555)
CAMKK2 (human) = CAMKK2 (human) (UniProt Q96RR4)
CASK (human) = CASK (human) (UniProt O14936)
CDC42BPG (human) = CDC42BPG (human) (UniProt Q6DT37)
CDK17 (human) = CDK17 (human) (UniProt Q00537)
CDK4 CCND3 (human) = CDK4 CCND3 (human) (UniProt P11802+P30281)
CDKL1 (human) = CDKL1 (human) (UniProt Q00532)
CSNK1G1 (human) = CSNK1G1 (human) (UniProt Q9HCP0)
DAPK1 (human) = DAPK1 (human) (UniProt P53355)
Chain of DAPK1 (human) (P53355 whole entry, looked up): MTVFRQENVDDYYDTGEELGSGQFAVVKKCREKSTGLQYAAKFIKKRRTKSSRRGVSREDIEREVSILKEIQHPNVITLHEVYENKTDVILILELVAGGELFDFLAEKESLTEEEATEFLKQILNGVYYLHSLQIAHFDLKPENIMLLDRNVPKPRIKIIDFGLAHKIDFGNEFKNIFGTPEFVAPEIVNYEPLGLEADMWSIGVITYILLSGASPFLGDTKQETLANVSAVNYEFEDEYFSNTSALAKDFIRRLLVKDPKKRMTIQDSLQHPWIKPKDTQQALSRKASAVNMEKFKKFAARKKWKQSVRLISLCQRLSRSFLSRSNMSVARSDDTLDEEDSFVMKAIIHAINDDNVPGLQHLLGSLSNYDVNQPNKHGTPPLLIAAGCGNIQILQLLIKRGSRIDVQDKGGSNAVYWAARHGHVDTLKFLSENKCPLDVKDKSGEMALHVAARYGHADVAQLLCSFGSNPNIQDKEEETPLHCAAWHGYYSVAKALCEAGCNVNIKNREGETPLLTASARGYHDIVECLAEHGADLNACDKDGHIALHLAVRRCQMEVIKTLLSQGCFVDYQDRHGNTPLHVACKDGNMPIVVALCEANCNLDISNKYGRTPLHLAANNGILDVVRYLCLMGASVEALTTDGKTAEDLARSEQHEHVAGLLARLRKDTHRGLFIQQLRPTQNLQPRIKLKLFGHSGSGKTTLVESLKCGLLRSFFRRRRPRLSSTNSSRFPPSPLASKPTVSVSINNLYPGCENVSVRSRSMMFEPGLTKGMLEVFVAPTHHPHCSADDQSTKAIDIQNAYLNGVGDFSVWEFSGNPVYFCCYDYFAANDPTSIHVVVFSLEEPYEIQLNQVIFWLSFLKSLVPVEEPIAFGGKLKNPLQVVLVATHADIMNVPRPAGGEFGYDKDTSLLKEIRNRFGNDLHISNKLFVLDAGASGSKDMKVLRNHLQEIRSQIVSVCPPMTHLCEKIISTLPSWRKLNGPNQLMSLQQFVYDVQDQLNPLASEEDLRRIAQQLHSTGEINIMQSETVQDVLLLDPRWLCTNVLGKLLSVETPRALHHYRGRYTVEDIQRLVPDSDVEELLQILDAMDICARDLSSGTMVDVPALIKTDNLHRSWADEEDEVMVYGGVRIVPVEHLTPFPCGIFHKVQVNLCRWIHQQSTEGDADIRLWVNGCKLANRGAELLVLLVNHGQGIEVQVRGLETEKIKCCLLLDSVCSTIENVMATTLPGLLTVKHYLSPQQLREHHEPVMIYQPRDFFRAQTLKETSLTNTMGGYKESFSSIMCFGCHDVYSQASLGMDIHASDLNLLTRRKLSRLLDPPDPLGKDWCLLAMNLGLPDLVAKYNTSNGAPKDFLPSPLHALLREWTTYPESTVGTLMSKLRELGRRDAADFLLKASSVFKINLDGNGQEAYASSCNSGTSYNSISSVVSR

DMPK (human) = DMPK (human) (UniProt Q09013)
Chain of DMPK (human) (Q09013 whole entry, looked up): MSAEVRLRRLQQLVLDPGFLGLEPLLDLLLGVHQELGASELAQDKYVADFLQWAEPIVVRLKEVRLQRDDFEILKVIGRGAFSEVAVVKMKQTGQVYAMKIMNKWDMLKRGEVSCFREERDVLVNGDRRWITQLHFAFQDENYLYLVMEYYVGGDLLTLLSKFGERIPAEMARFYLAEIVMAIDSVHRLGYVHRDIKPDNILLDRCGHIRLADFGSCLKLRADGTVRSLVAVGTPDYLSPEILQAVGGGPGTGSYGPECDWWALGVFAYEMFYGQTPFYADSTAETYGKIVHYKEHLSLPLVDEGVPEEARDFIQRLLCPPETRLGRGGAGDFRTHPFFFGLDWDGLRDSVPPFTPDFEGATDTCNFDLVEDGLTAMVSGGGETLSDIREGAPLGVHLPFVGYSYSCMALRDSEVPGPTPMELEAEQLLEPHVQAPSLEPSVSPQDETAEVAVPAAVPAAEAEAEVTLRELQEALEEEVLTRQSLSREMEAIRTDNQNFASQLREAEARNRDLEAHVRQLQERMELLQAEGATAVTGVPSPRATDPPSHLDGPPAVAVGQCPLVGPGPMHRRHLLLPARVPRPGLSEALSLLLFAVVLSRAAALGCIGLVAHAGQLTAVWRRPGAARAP

DYRK1A (human) = DYRK1A (human) (UniProt Q13627)
EPHA5 (human) = EPHA5 (human) (UniProt P54756)
ITK (human) = ITK (human) (UniProt Q08881)
KDR (human) = KDR (human) (UniProt P35968)
LATS1 (human) = LATS1 (human) (UniProt O95835)
MAP3K10 (human) = MAP3K10 (human) (UniProt Q02779)
MAP4K4 (human) = MAP4K4 (human) (UniProt O95819)
MELK (human) = MELK (human) (UniProt Q14680)
NEK2 (human) = NEK2 (human) (UniProt P51955)
NEK7 (human) = NEK7 (human) (UniProt Q8TDX7)
NEK9 (human) = NEK9 (human) (UniProt Q8TD19)
NTRK2 (human) = NTRK2 (human) (UniProt Q16620)
PAK3 (human) = PAK3 (human) (UniProt O75914)
PIK3C2B (human) = PIK3C2B (human) (UniProt O00750)
PIK3CA (human) = PIK3CA (human) (UniProt P42336)
PIP4K2B (human) = PIP4K2B (human) (UniProt P78356)
PLK3 (human) = PLK3 (human) (UniProt Q9H4B4)
PRKCQ (human) = PRKCQ (human) (UniProt Q04759)
PTK6 (human) = PTK6 (human) (UniProt Q13882)
Chain of PTK6 (human) (Q13882 whole entry, looked up): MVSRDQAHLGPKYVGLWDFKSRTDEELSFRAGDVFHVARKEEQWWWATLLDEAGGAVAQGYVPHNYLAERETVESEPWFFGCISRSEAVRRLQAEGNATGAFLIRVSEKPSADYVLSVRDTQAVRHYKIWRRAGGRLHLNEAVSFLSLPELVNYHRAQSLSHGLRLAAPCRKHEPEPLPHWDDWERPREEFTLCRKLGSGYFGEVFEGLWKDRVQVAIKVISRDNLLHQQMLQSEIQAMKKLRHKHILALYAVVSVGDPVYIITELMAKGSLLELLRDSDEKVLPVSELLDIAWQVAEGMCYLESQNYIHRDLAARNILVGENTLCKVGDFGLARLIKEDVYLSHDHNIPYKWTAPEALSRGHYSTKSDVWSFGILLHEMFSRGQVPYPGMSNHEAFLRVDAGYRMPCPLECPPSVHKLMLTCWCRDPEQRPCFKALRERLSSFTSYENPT

RIOK2 (human) = RIOK2 (human) (UniProt Q9BVS4)
RPS6KA2 KD1 (human) = RPS6KA2 KD1 (human) (UniProt Q15349)
Chain of RPS6KA2 KD1 (human) (Q15349 whole entry, looked up): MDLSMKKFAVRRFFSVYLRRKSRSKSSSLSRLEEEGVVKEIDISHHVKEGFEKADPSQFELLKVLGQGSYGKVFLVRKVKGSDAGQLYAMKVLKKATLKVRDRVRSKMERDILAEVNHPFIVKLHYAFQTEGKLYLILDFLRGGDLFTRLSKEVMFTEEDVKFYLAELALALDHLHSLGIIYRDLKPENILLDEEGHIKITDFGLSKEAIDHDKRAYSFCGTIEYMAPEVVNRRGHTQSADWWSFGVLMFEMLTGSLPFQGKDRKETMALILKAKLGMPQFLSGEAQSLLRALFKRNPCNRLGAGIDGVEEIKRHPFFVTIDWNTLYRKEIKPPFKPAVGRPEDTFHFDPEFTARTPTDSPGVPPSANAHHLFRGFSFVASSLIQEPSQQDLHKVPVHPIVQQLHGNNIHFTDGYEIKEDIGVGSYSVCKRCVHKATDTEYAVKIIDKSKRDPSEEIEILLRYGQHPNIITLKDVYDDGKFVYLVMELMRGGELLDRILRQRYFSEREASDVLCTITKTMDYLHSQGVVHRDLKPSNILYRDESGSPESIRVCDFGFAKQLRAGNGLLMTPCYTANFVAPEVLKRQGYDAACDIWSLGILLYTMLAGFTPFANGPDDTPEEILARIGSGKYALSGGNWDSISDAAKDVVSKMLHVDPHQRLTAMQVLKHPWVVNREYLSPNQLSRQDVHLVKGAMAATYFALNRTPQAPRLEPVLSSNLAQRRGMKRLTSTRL

RPS6KA3 KD1 (human) = RPS6KA3 KD1 (human) (UniProt P51812)
Chain of RPS6KA3 KD1 (human) (P51812 whole entry, looked up): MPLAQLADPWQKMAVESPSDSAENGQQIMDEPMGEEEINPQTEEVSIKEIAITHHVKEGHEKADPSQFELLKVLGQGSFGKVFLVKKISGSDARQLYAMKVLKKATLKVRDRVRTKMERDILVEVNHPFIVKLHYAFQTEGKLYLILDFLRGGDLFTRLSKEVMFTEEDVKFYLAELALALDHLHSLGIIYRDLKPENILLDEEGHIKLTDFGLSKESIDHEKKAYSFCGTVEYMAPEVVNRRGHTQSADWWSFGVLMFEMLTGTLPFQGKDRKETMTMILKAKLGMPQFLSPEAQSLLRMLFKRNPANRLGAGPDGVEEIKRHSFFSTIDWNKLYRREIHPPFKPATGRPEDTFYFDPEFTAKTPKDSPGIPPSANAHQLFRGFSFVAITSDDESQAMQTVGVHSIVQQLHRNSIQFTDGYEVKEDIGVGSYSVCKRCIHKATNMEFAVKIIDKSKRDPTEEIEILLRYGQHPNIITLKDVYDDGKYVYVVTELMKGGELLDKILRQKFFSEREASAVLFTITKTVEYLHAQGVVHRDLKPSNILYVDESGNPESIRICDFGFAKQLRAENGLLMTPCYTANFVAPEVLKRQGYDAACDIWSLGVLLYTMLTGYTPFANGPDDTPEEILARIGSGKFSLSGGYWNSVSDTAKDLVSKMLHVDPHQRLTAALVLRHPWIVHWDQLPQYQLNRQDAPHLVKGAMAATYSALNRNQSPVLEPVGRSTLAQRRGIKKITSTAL

RPS6KA4 KD1 (human) = RPS6KA4 KD1 (human) (UniProt O75676)
RPS6KA5 KD1 (human) = RPS6KA5 KD1 (human) (UniProt O75582)
STK4 (human) = STK4 (human) (UniProt Q13043)
TAOK1 (human) = TAOK1 (human) (UniProt Q7L7X3)
VRK2 (human) = VRK2 (human) (UniProt Q86Y07)
Chain of VRK2 (human) (Q86Y07 whole entry, looked up): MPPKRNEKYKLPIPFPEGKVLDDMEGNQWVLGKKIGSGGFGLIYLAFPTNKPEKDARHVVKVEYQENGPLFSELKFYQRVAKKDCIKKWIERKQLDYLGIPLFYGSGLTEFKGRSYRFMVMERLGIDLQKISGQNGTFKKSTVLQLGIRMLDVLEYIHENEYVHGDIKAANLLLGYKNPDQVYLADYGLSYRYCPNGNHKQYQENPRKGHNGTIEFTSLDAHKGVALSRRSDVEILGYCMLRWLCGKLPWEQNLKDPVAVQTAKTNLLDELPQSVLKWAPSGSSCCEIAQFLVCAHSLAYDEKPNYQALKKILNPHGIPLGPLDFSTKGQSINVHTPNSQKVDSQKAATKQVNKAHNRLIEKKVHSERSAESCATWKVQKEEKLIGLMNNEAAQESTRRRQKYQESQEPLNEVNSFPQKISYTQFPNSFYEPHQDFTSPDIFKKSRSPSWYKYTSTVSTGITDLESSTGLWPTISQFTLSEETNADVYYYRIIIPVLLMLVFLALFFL

Chain of AKT2 (human) (P31751 whole entry, looked up): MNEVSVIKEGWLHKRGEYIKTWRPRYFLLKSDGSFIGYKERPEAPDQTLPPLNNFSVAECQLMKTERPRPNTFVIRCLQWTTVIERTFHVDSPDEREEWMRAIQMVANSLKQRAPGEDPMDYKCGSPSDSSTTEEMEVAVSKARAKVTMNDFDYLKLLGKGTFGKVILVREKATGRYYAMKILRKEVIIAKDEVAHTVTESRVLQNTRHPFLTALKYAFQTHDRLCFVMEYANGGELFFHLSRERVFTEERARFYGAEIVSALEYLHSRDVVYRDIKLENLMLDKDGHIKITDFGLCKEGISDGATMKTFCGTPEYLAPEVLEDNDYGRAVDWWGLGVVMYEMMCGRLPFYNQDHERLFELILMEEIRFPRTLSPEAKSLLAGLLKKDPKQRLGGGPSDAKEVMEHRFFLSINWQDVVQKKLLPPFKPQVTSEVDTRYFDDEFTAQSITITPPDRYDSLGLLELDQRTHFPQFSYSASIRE

Row | SMILES | kinase still bound, per cent of control (AKT2 (human)) | kinase still bound, per cent of control (ANKK1 (human)) | kinase still bound, per cent of control (BRSK2 (human)) | kinase still bound, per cent of control (CAMK2G (human)) | kinase still bound, per cent of control (CAMKK2 (human)) | kinase still bound, per cent of control (CASK (human)) | kinase still bound, per cent of control (CDC42BPG (human)) | kinase still bound, per cent of control (CDK17 (human)) | kinase still bound, per cent of control (CDK4 CCND3 (human)) | kinase still bound, per cent of control (CDKL1 (human)) | kinase still bound, per cent of control (CSNK1G1 (human)) | kinase still bound, per cent of control (DAPK1 (human)) | kinase still bound, per cent of control (DMPK (human)) | kinase still bound, per cent of control (DYRK1A (human)) | kinase still bound, per cent of control (EPHA5 (human)) | kinase still bound, per cent of control (ITK (human)) | kinase still bound, per cent of control (KDR (human)) | kinase still bound, per cent of control (LATS1 (human)) | kinase still bound, per cent of control (MAP3K10 (human)) | kinase still bound, per cent of control (MAP4K4 (human)) | other results
1 | O=C(Nc1cccc(Nc2ncc(Br)c(NCCc3cnc[nH]3)n2)c1)N1CCCC1 | 100% | 4.3% | 5.8% | 52% | 2% | 67% | 49% | 77% | 0.35% | 1.8% | 54% | 1.2% | 9.1% | 12% | 92% | 4.5% | 1.8% | 21% | 0% | 2.4% | kinase still bound, per cent of control (MELK (human)): 2.2%; kinase still bound, per cent of control (NEK2 (human)): 6.2%; kinase still bound, per cent of control (NEK7 (human)): 0.5%; kinase still bound, per cent of control (NEK9 (human)): 4.6%; kinase still bound, per cent of control (NTRK2 (human)): 0.45%; kinase still bound, per cent of control (PAK3 (human)): 2.6%; kinase still bound, per cent of control (PIK3C2B (human)): 89%; kinase still bound, per cent of control (PIK3CA (human)): 100%; kinase still bound, per cent of control (PIP4K2B (human)): 0.55%; kinase still bound, per cent of control (PLK3 (human)): 20%; kinase still bound, per cent of control (PRKCQ (human)): 3.6%; kinase still bound, per cent of control (PTK6 (human)): 45%; kinase still bound, per cent of control (RIOK2 (human)): 36%; kinase still bound, per cent of control (RPS6KA2 KD1 (human)): 7.6%; kinase still bound, per cent of control (RPS6KA3 KD1 (human)): 0.5%; kinase still bound, per cent of control (RPS6KA4 KD1 (human)): 2.1%; kinase still bound, per cent of control (RPS6KA5 KD1 (human)): 57%; kinase still bound, per cent of control (STK4 (human)): 12%; kinase still bound, per cent of control (TAOK1 (human)): 0.25%; kinase still bound, per cent of control (VRK2 (human)): 12%
2 | NC(=O)Nc1cc(-c2cccc(F)c2)sc1C(=O)N[C@@H]1CCCNC1 | 60% | 1.2% | 2.8% | 24% | 2.9% | 92% | 72% | 84% | 92% | 46% | 7.6% | 0.1% | 12% | 0% | 4.8% | 0.55% | 0.05% | 11% | 1.2% | 0.5% | kinase still bound, per cent of control (MELK (human)): 1.4%; kinase still bound, per cent of control (NEK2 (human)): 75%; kinase still bound, per cent of control (NEK7 (human)): 72%; kinase still bound, per cent of control (NEK9 (human)): 80%; kinase still bound, per cent of control (NTRK2 (human)): 0.35%; kinase still bound, per cent of control (PAK3 (human)): 0.5%; kinase still bound, per cent of control (PIK3C2B (human)): 16%; kinase still bound, per cent of control (PIK3CA (human)): 100%; kinase still bound, per cent of control (PIP4K2B (human)): 0.2%; kinase still bound, per cent of control (PLK3 (human)): 39%; kinase still bound, per cent of control (PRKCQ (human)): 0%; kinase still bound, per cent of control (PTK6 (human)): 1.4%; kinase still bound, per cent of control (RIOK2 (human)): 48%; kinase still bound, per cent of control (RPS6KA2 KD1 (human)): 5%; kinase still bound, per cent of control (RPS6KA3 KD1 (human)): 0.95%; kinase still bound, per cent of control (RPS6KA4 KD1 (human)): 0.2%; kinase still bound, per cent of control (RPS6KA5 KD1 (human)): 49%; kinase still bound, per cent of control (STK4 (human)): 0.4%; kinase still bound, per cent of control (TAOK1 (human)): 4.8%; kinase still bound, per cent of control (VRK2 (human)): 92%
